How the values were obtained:
Test in all cases: relative viability (nuclei count vs DMSO), 5 days (fraction); higher = more cells survive
[1] = compound: C[C@@H](N)c1ccc(C(=O)Nc2ccnc3[nH]ccc23)cc1 + N=C(N)NC(=N)NCCc1ccccc1 [Phenformin] (partner 250 µM)
Summary of the method: (§1)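 Relative viability divides the nuclei count in treated wells by that in vehicle wells. Lung cancer cell lines were seeded in 1536-well plates, dosed by pin tool the next day, and fixed and stained after 5 days in one step with final 0.05% Triton X-100, 1% formaldehyde and 1 ug/ml Hoechst. Dosing was a single drug or a fixed anchor-drug dose plus five library-drug doses (not always all listed) in √10 steps, and values are medians of duplicate plates imaged at 4×.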

[2] = compound: C1CNCCC1C2=CC(=NN2)C3=CC=NC=C3 + Cc1cc(Nc2cc(N3CCN(C)CC3)nc(Sc3ccc(NC(=O)C4CC4)cc3)n2)n[nH]1 [Tozasertib] (partner 0.1 µM)
Summary of the method: as §1

[3] = compound: C[C@@H](N)c1ccc(C(=O)Nc2ccnc3[nH]ccc23)cc1 + Nc1ncn([C@H]2C[C@H](O)[C@@H](CO)O2)c(=O)n1 [Decitabine] (partner 2 µM)
Summary of the method: as §1

[4] = compound: C1CNCCC1C2=CC(=NN2)C3=CC=NC=C3 + CC(C)C[C@H](NC(=O)[C@H](Cc1ccccc1)NC(=O)c1cnccn1)B(O)O [Bortezomib] (partner 0.002 µM)
Summary of the method: as §1

Cell Line | relative viability ([1]; first compound 0.04 µM) | relative viability ([1]; first compound 0.1265 µM) | relative viability ([1]; first compound 0.4 µM) | relative viability ([1]; first compound 1.265 µM) | relative viability ([1]; first compound 4 µM) | relative viability ([2]; first compound 0.08 µM) | relative viability ([2]; first compound 0.8 µM) | relative viability ([2]; first compound 2.53 µM) | relative viability ([2]; first compound 8 µM) | relative viability ([3]; first compound 0.04 µM) | relative viability ([3]; first compound 0.1265 µM) | relative viability ([3]; first compound 0.4 µM) | relative viability ([3]; first compound 1.265 µM) | relative viability ([3]; first compound 4 µM) | relative viability ([4]; first compound 0.08 µM) | relative viability ([4]; first compound 0.8 µM) | relative viability ([4]; first compound 2.53 µM) | relative viability ([4]; first compound 8 µM)
HOP-62 | 0.607 | 0.609 | 0.636 | 0.552 | 0.607 | 0.416 | 0.407 | 0.386 | 0.383 | 0.21 | 0.225 | 0.241 | 0.206 | 0.207 | 0.479 | 0.84 | 1.15 | 0.728
IA-LM |  |  |  |  |  |  |  |  |  |  |  |  |  |  | 0.911 | 0.934 | 1.08 | 0.864
LC-2-ad | 0.549 | 0.599 | 0.609 |  | 0.558 |  | 0.445 | 0.485 | 0.467 | 0.935 | 0.775 | 0.827 | 0.775 | 0.563 | 1.07 | 1.52 | 0.994 | 0.944
LCLC-97TM1 | 0.418 | 0.458 | 0.521 | 0.365 | 0.427 | 0.225 | 0.177 | 0.256 | 0.293 | 0.254 | 0.263 | 0.249 | 0.218 | 0.304 | 0.668 | 0.666 | 0.796 | 0.444
LCLC-103H | 0.284 | 0.351 | 0.329 | 0.268 | 0.308 | 0.469 | 0.534 | 0.459 | 0.443 | 0.652 | 0.69 | 0.724 | 0.716 | 0.652 | 1.06 | 0.936 | 1.3 | 1.12
LK-2 | 0.325 |  | 0.744 |  | 0.636 | 0.157 | 0.208 | 0.182 | 0.184 | 0.351 | 0.287 | 0.359 | 0.237 | 0.352 |  |  |  | 
LOU-NH91 | 0.589 | 0.628 | 0.672 | 0.28 | 0.646 | 0.673 | 0.648 | 0.696 | 0.58 | 0.755 | 0.79 | 0.78 | 0.69 | 0.577 | 0.52 | 0.503 | 0.484 | 0.498
LU99A |  | 0.924 | 0.768 | 0.605 | 0.635 | 0.307 | 0.267 | 0.278 | 0.304 |  | 1.03 | 0.824 | 0.773 | 0.598 | 1.1 | 1.26 | 1.35 | 1.08
LXF-289 | 0.509 | 0.524 | 0.525 | 0.569 | 0.496 | 0.219 | 0.196 | 0.178 | 0.207 | 0.406 | 0.362 | 0.362 | 0.373 | 0.331 | 1.05 | 1.14 | 0.968 | 0.962
NCI-H358 | 0.374 | 0.358 | 0.314 | 0.32 | 0.246 | 0.106 | 0.101 | 0.106 | 0.0938 | 0.232 | 0.222 | 0.191 | 0.19 | 0.207 |  |  |  | 
NCI-H522 | 0.69 | 0.549 | 0.668 | 0.591 | 0.402 | 0.519 | 0.518 | 0.587 | 0.562 | 0.704 | 0.683 | 0.727 | 0.694 | 0.715 |  |  |  | 
